The source of these data is patent US20200378993A1, “MEDICAL USES OF APOLIPOPROTEIN A AND ACTIVATORS THEREOF” (FUNDACIÓN IMDEA ALIMENTACIÓN, priority 2017, published 2020).

Format in all cases: cell-based, human
One assay concerns DLD1_ABCA1 cells. As to the kind of experiment: Cell viability and proliferation assay (XCELLigence). As to conditions: 40 μg/ml apolipoprotein A1 (72 hours before, 20 μg/ml during acquisition); DLD1_ABCA1 cells. The protocol:
(§1) FIG. 6. A) Proliferation curve in a viability assay carried out by means of XCELLigence technology. The results for the stable cell line overexpressing ABCA1 in the absence and presence of ApoA1 are shown. The cells were treated for 72 hours before the experiment with 40 μg/ml of ApoA1 and with a concentration of 20 μg/ml during acquisition. B) Migration and invasion assays. The method followed was the same as the one described in FIG. 1. (**p-value=0.003; ****p-value<0.0001). C) ABCA1 messenger RNA level (left panel) and ABCA1 protein level (right panel) in the presence and absence of treatment with ApoA1. Results are shown both for the control cells and for those cells overexpressing the transporter.
Cell viability and proliferation assays were carried out by means of XCELLigence technology (ACEA Biosciences, Inc.) following the manufacturer's indications. Migration and invasion assays were carried out in Corning® BioCoat™ Control plates (#354578) and Corning® BioCoat™ Matrigel plates (#354480), respectively, following the manufacturer's indications. […]
(§2) The inventors were able to confirm said results based on the treatment of DLD1 cells expressing ABCA1 with RVX-208 under the conditions already described in detail in Example 3. […] The levels of caveolin-1, a protein whose increased levels have been associated with increases in cell migration and invasion, were also analyzed in this experiment.

Assay [1] deals with DLD1 cells. The description is as above. As to conditions: ApoA1 40 μg/ml first dose of 72 hours, 20 μg/ml during result acquisition; DLD1 cells. The protocol:
(§3) Cell viability and proliferation assays were carried out by means of XCELLigence technology (ACEA Biosciences, Inc.) following the manufacturer's indications. Migration and invasion assays were carried out in Corning® BioCoat™ Control plates (#354578) and Corning® BioCoat™ Matrigel plates (#354480), respectively, following the manufacturer's indications. For the rescue assays, the cells were treated for 72 hours with 30 μM apabetalone (RVX-208; Biovision). Antibodies: ABCA1 (Ab18180, Abcam. 1:500); caveolin-1 (Ab2910, Abcam. 1:1000); α-tubulin (T9026, Sigma 1:1000). The DLD1 cells correspond to a human colorectal cancer-derived adherent epithelial cell line (ATCC® CCL-221™). The stable cell lines capable of overexpressing ABCA1 were obtained by means of transduction with genetically modified lentivirus.
(§4) Following the same treatment regimen, the inventors carried out migration and invasion assays.
(§5) The same assays were repeated by replacing ApoA1 with a treatment with RVX-208. In this case, DLD1 cells were pre-treated for 72 hours before the start of the experiment with RVX-208 at a concentration of 30 μm and were subjected to a treatment with 15 μM of RVX-208 during the development of the experiments.
(§6) For the purpose of confirming that the effects of RVX-208 in cell phenotype recovery were due to the increase in ApoA-1 expression, the inventors inhibited the expression of said protein by means of transfection of a complementary small RNA, ShApoA1 (FIG. 9). Twenty-four hours after transfection with ShApoA1 expression vector, the inventors started treatment with 30 μM of RVX-208. Cell viability and proliferation in DLD1 cells (D_NoORF) and D1D1 cell lines expressing increased ApoA1 levels (D_ApoA1 ) were analyzed with the xCELLigence system.

Assay [2] has as its system DLD1 cells. The assay can be described thus: Migration assay (Corning BioCoat Control plates). As to conditions: ApoA1 40 μg/ml 72 hours before, 20 μg/ml during assay. The protocol:
as §3, §4, §5

Assay [3] deals with DLD1 cells. The assay can be described thus: Invasion assay (Corning BioCoat Matrigel plates). As to conditions: ApoA1 40 μg/ml 72 hours before, 20 μg/ml during assay; DLD1 cells. The protocol: as §3, §4, §5, §6
Assay [4] relates to ABCA1 cholesterol transporter. The assay can be described thus: ABCA1 messenger RNA and protein level after treatment. The protocol: as §1
FIG. 7. A) Proliferation curve in a viability assay carried out by means of XCELLigence technology. Growth of DLD1 cells treated with DMSO as the drug carrier and with Rvx-208 (30 μM). The significant differences existing in the slope of the graph, and therefore in the growth dynamics of the treated cells are shown in the right panel (****p-value<0.0001). B) Migration and invasion assays. The method followed was the same as the one described in FIG. 2 (*p-value=0.0407; ****p-value<0.0001). C) Expression levels of proteins E-cadherin and Vimentin in the presence and absence of Rvx-208. Analysis performed by means of quantitative PCR. The relative expression levels normalized with respect to the untreated control are shown. D) ABCA1, ApoA1, caveolin-1, and α-tubulin immunodetection by means of Western blot. α-tubulin acts as load control. The results of the cells treated with Rvx-208 (30 μM) or with the DMSO carrier are shown. E) Cholesterol flux in cells treated with Rvx-208.
as §3, with “The stable cell lines capable of overexpressing ABCA1 were obtained by means of transduction with genetically modified lentivirus.” left out
as §2

Where [5] appears, read: treatment with ApoA1, control cells and cells overexpressing ABCA1.

As to “ApoA1: apolipoprotein A1 protein administered to the cells”, the proliferative capacity entry in the assay on DLD1_ABCA1 cells is on record as “dropped to levels that are comparable to the control situation”. The cell proliferation entry in the assay with DLD1 cells [1] is recorded as “significant decrease in cell proliferation”. Moreover, the “capacity to migrate to the serum-rich region” value in the assay on DLD1 cells [2] is “reduced capacities to migrate to the serum-rich region”. The “capacity to invade the extracellular matrix” value in the assay with DLD1 cells [3] is on record as “reduced capacities”. The ABCA1 levels entry in assay [4] (direct treatment with ApoA1, as restated in Example 5 (FIG. 6C)) was “induces an increase in ABCA1 levels”. In assay [4] (setting [5]), the “ABCA1 expression level, messenger RNA level” value is “significantly decreases the expression levels” and the “ABCA1 expression level, protein level” value is on record as “significantly decreases the expression levels”.
